Assay results from paper PMC9837035 (Nature Communications, 2023).
Where “and” joins values, the source holds several entries; their conditions need not be identical. Equal entries are not always repeated. Where two headings read alike, the source gives them in different places.

Experiments:
[1] = tested on: β- and γ-globin mRNAs in CD34+-derived cells; experiment: RT-qPCR of β- and γ-globin in CD34+-derived cells; type: cell-based, human
Experimental: HUDEP-2 cells and HiDEP-1 cells were grown in Stemline II Hematopoietic Stem Cell Expansion Medium (Sigma) supplemented with 50 ng/mL recombinant stem cell factor (SCF; R&D systems), 3 IU/mL recombinant erythropoietin (EPO; Kyowa Kirin), 1 μM dexamethasone (Dex; Sigma), and 1 μg/mL doxycycline (Sigma). A total of 1 × 10^5 human CD34^+ progenitor cells derived from bone marrow or peripheral blood (Lonza) were cultured on 35-mm dishes (BD Falcon) in StemSpan SFEMII medium with 50 ng/mL SCF, 5 IU/mL EPO, and 10 ng /mL interleukin 3 (IL-3; R&D systems). The medium was changed on day 4 to SCF, EPO, and 1 μM Dex, and the cells were transferred to 60-mm dishes (BD Falcon). Seven days after the onset of differentiation, cells were counted and 1 × 10^6 cells were re-plated on 100-mm dishes (BD Falcon) with SCF, EPO, and Dex. The rat myoblast cell line H9c2, HEK293T, and PLAT-E cells were maintained in Dulbecco’s modified Eagle’s medium (Thermo Fisher Scientific) supplemented with 10% heat-inactivated fetal bovine serum (FBS) and penicillin/streptomycin. All cells were cultured at 37 °C under 5% CO2.
(§1) Total cellular RNA was prepared using the Tissue Total RNA Mini Kit (FAVORGEN), and cDNA was synthesized using ReverTra Ace Master Mix (TOYOBO). Expression of target genes was analyzed using THUNDERBIRD SYBR qPCR Mix (TOYOBO) on a CFX Connect Real Time System (Bio-Rad). The qPCR data were acquired on CFX Maestro (Bio-Rad). Primers are listed in Supplementary Table 10. GAPDH was used as a reference. Primers were purchased from INTEGRATED DNA TECHNOLOGIES or FASMAC.

[2] = tested on: BCL11A occupancy at the β-globin locus; experiment: ChIP-qPCR with antibody against BCL11A in HUDEP-2 cells; type: cell-based, human; set-up: ChIP-qPCR, antibody against BCL11A: scale not given here; conditions: for occupancies of BCL11A in the BGLT3 gene region: HUDEP-2, 4 days
Experimental: A total of 0.5–1 × 10^6 cells were cross-linked with 1% formaldehyde for 10 min at room temperature and the reaction was quenched with 250 mM glycine. Cross-linked cells were then lysed with buffer 1 (15 mM Tris-HCl (pH 7.5), 60 mM KCl, 15 mM NaCl, 5 mM MgCl2, 0.1 mM EGTA, 300 mM sucrose, […], 1 mM phenylmethanesulfonyl fluoride (PMSF), 0.5% NP40) and incubated on ice for 10 min. After centrifugation, the pellet was re-suspended in buffer 2 (15 mM Tris-HCl (pH 7.5), 60 mM KCl, 15 mM NaCl, 5 mM MgCl2, 0.1 mM EGTA, 1.2 M sucrose, […], 1 mM PMSF). After centrifugation, the pellet was then re-suspended in MNase buffer (50 mM Tris-HCl (pH 7.5), 1 mM CaCl2, 4 mM MgCl2, 320 mM sucrose, 1 mM PMSF) and digested with 100 U of micrococcal nuclease (Takara) at 37 °C for 15 min. After the reaction was quenched with 20 mM EDTA, the supernatants were incubated with antibodies (anti-H3K9me2 (1:100), Abcam, ab1220; anti-H3K9ac (1:100), Active Motif, 39917; Goat anti-IgG (H + L) (1:100), Jackson Immunoresearch; anti-BCL11A (1:100), Novus Biologicals, NB600-261; anti-ZBTB7A (1:100), Thermo Fisher Scientific, eBioscience (13E9); anti-CHD3 (1:100), Novus Biologicals, NB-100-60412; anti-CHD4 (1:100), abcam, ab240640) and Protein A/G PLUS-Agarose (Santa Cruz Biotechnology) overnight at 4 °C. Beads were washed sequentially once with the following buffers: wash buffer A (50 mM Tris-HCl (pH 7.5), 75 mM NaCl, 10 mM EDTA, 0.01% NP40), wash buffer B (50 mM Tris-HCl (pH 7.5), 100 mM NaCl, 10 mM EDTA, 0.01% NP40), wash buffer C (50 mM Tris-HCl (pH 7.5), 175 mM NaCl, 10 mM EDTA, 0.01% NP40). After treatment with proteinase K in buffer 4 (20 mM Tris-HCl (pH 8.0), 10 mM EDTA, 400 mM NaCl, 0.5% SDS) at 56 °C overnight, DNA was purified using the FastGene Gel/PCR Extraction Kit (Nippon Genetics). The samples were analyzed by qPCR. Primers are listed in Supplementary Table 10. ChIP-seq experiments were performed by GENEWIZ. Tracks were visualized using the integrative genome viewer. ChIP-seq analysis were analyzed Cutadapt (V1.9.1) for QC, FastQC (V0.10.1) for QC assessment, Bowtie (V2.1.0) for mapping, strand cross-correlation (SCC) for ChIP quality assessment, MACS2 for peak calling, and R package ChIPpeakAnno for Peak annotated.

[3] = tested on: BGLT3-knockdown HUDEP-2 cells; experiment: RT-qPCR of BGLT3, β- and γ-globin in BGLT3-knockdown HUDEP-2 cells; type: cell-based, human; conditions: for induction of γ-globin in BGLT3-knockdown cell lines: HUDEP-2; for BGLT3 expression / β-globin expression / γ-globin expression: shctrl DMSO = 1, 3 replicates
Experimental: as §1
Retroviral infection was used as previously described to establish cell lines stably expressing BGLT3 and transfected with the pCX4-pur vector, as well as knockdown cell lines transfected with the pSUPER vector[58]. Briefly, retroviruses were produced by transfecting PLAT-E cells with pCX4-pur-BGLT3 or pSUPER-ctrl, pSUPER-BGLT3, or pSUPER-G9a using 5 μg/mL polyethylenimine MAX (PEI MAX, Polysciences). Two days after transfection, the culture supernatant was collected and filtered through a 0.45-μm filter (Millipore) and used for infection with 8 μg/mL polybrene (Sigma). Forty-eight hours after infection, the infected cells were selected with 0.2 μg/mL puromycin (InvivoGen). The clonal puromycin-resistant cells were established via limiting dilution. The desired clones were confirmed by western blotting or qPCR.

DNMT3a = biological target: T1, DNMT3a (Homo sapiens, UniProt Q9Y6K1); experiment: Radioisotope-based methyltransferase assay (selectivity); type: biochemical
T1 construct: purchased Reaction Biology
T1 sequence (Q9Y6K1 whole entry, looked up): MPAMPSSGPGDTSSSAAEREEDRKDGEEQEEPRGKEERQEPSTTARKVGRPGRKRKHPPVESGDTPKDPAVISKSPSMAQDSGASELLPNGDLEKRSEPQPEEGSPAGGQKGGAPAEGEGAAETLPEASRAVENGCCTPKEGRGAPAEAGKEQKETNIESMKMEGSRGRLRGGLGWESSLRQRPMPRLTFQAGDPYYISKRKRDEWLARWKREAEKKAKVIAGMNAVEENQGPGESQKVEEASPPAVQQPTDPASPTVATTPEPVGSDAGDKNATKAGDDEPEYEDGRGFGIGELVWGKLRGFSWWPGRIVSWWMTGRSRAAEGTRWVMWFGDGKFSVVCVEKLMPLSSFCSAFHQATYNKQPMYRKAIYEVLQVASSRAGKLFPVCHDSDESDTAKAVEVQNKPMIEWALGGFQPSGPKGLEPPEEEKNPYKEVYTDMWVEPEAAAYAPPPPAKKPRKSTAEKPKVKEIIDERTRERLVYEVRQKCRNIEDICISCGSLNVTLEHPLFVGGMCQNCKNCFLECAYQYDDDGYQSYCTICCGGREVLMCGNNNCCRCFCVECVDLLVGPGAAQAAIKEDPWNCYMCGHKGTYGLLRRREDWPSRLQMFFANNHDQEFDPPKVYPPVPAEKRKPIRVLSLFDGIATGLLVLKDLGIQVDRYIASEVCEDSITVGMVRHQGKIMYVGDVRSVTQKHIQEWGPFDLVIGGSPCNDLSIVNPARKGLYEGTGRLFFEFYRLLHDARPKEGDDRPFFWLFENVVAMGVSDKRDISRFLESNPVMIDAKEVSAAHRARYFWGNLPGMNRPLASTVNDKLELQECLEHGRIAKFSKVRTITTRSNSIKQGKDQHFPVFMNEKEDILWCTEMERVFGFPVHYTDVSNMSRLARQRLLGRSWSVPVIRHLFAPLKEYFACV

MLL3 = biological target: T2, MLL3 (Homo sapiens, UniProt Q8NEZ4); experiment: as above; type: biochemical
T2 construct: purchased Reaction Biology

[4] = CD34+-derived cells, day 10, 10 μM
[5] = shBGLT3#1 HUDEP-2 cells treated with hydroxyurea
[6] = shBGLT3#2 HUDEP-2 cells treated with hydroxyurea
[7] = shBGLT3#3 HUDEP-2 cells treated with hydroxyurea
[8] = shctrl HUDEP-2 cells treated with hydroxyurea

For `NC(=O)NO` [Hydroxyurea, hydroxyurea], the “Relative expression of β-globin mRNA” value [1, 4] was 1.124 and 0.7862 and 0.5724, the “Relative expression of γ-globin mRNA” value [1, 4] was 2.644 and 2.524 and 1.672 and the “ChIP-qPCR, antibody against BCL11A” value ([2]; BGLT3 locus, HUDEP-2 cells treated with hydroxyurea, replicates 1a-3b) was 0.8842 and 1.017 and 0.83 and 0.5175 and 0.6913 and 0.7867. For the same molecule, the “ChIP-qPCR, antibody against BCL11A” value ([2]; HS1, HUDEP-2 cells treated with hydroxyurea, replicates 1a-3b) was 1.064 and 0.5507 and 0.5814 and 1.256 and 1.601 and 1.4807, the “ChIP-qPCR, antibody against BCL11A” value ([2]; HS2, HUDEP-2 cells treated with hydroxyurea, replicates 1a-3b) was 0.08682 and 2.447 and 1.693 and 2.52 and 0.949 and 0.09517 and the “ChIP-qPCR, antibody against BCL11A” value ([2]; HS3, HUDEP-2 cells treated with hydroxyurea, replicates 1a-3b) was 1.655 and 3.8122 and 0.8818 and 0.7067 and 0.6435 and 2.151. For the same molecule, the “ChIP-qPCR, antibody against BCL11A” value ([2]; HS4, HUDEP-2 cells treated with hydroxyurea, replicates 1a-3b) was 0.8173 and 1.536 and 0.3618 and 0.975 and 1.091 and 0.6403, the “occupancies of BCL11A in the BGLT3 gene region” value [2] was “decreased” and the “ChIP-qPCR, antibody against BCL11A” value ([2]; β-globin promoter, HUDEP-2 cells treated with hydroxyurea, replicates 1a-3b) was 0.5672 and 1.0178 and 0.4614 and 1.054 and 0.8774 and 0.8041. For the same molecule, the “ChIP-qPCR, antibody against BCL11A” value ([2]; γ-globin promoter, HUDEP-2 cells treated with hydroxyurea, replicates 1a-3b) was 0.6219 and 0.3788 and 0.8175 and 0.7872 and 0.7026 and 0.3349, the “ChIP-qPCR, antibody against BCL11A” value ([2]; δ-globin promoter, HUDEP-2 cells treated with hydroxyurea, replicates 1a-3b) was 0.5737 and 0.8872 and 0.4941 and 0.547 and 0.6567 and 0.5438 and the “induction of γ-globin in BGLT3-knockdown cell lines” value [3] was “significantly suppressed by BGLT3 knockdown”. The BGLT3 expression [3, 5] was 0.1509 and 0.1371 and 0.1512, the β-globin expression [3, 5] was 1.466 and 1.446 and 1.721 and the γ-globin expression [3, 5] was 0.1913 and 0.1897 and 0.2071. The BGLT3 expression [3, 6] was 0.4826 and 0.5314 and 0.5646, the β-globin expression [3, 6] was 1.233 and 1.155 and 1.519 and the γ-globin expression [3, 6] was 0.3698 and 0.274 and 0.2235. For the same molecule, the BGLT3 expression [3, 7] was 0.2947 and 0.3306 and 0.3028, the β-globin expression [3, 7] was 1.946 and 1.495 and 2.515 and the γ-globin expression [3, 7] was 0.4324 and 0.5055 and 0.5513. The BGLT3 expression [3, 8] was 2.21 and 1.619 and 1.809, the β-globin expression [3, 8] was 1.158 and 0.7746 and 0.9701 and the γ-globin expression [3, 8] was 2.343 and 1.97 and 1.753.

With `Cc1c(C(=O)NC(CCC2CC2)C(=O)Nc2ccc(C#N)cc2)[nH]c2c1C(=O)CC(C)(C)C2` (stereo not shown) [RK-701] the IC50 (DNMT3a; DNMT3a, 1 μM SAM, read-out: IC50) was > 100 µM, the IC50 (DNMT3a; DNMT3a, RK-701 in duplicate, read-out: IC50) was > 100 µM and the “γ-globin mRNA expression” value ([1]; primary human CD34+ hematopoietic cells) was “significantly increased”. The “ChIP-qPCR, antibody against BCL11A” value ([2]; BGLT3 locus, HUDEP-2 cells treated with RK-701, replicates) was 0.6314 and 0.7848 and 0.4856 and 0.8245 and 0.6776 and 0.5891, the “ChIP-qPCR, antibody against BCL11A” value ([2]; HS1, HUDEP-2 cells treated with RK-701, replicates) was 0.3627 and 0.3768 and 0.661 and 0.2587 and 0.1661 and 0.2446 and the “ChIP-qPCR, antibody against BCL11A” value ([2]; HS2, HUDEP-2 cells treated with RK-701, replicates) was 0.4595 and 0.8137 and 0.6566 and 1.335 and 1.936 and 0.6063 and 1.138 and 0.7851. For the same molecule, the “ChIP-qPCR, antibody against BCL11A” value ([2]; HS3, HUDEP-2 cells treated with RK-701, replicates) was 0.4555 and 0.6595 and 0.2297 and 0.7103 and 0.2788 and 0.5275, the “ChIP-qPCR, antibody against BCL11A” value ([2]; HS4, HUDEP-2 cells treated with RK-701, replicates) was 0.3987 and 0.3554 and 0.6174 and 0.2389 and the “occupancies of BCL11A in the BGLT3 gene region” value [2] was “significantly suppressed”. The “ChIP-qPCR, antibody against BCL11A” value ([2]; β-globin promoter, HUDEP-2 cells treated with RK-701, replicates) was 0.04573 and 0.1654 and 0.1051 and 0.1187 and 0.1597 and 0.09847 and 0.07533, the “ChIP-qPCR, antibody against BCL11A” value ([2]; γ-globin promoter, HUDEP-2 cells treated with RK-701, replicates) was 0.1313 and 0.1159 and 0.3396 and 0.07171 and 0.121 and 0.0314 and the “ChIP-qPCR, antibody against BCL11A” value ([2]; δ-globin promoter, HUDEP-2 cells treated with RK-701, replicates) was 0.018 and 0.05206 and 0.04359 and 0.0353 and 0.01403 and 0.04746. For the same molecule, the IC50 (MLL3; MLL3, 1 μM SAM) was > 100 µM, the IC50 (MLL3; MLL3, RK-701 in duplicate) was > 100 µM and the “induction of γ-globin in BGLT3-knockdown cell lines” value [3] was “almost completely abolished”.

`Nc1ncnc2c1ncn2[C@@H]1O[C@H](CSCC[C@H](N)C(=O)O)[C@@H](O)[C@H]1O` [SAH, S-(5'-Adenosyl)-L-homocysteine, reference compound] showed an IC50 (DNMT3a; IC50, DNMT3a, 1 μM SAM) of 0.3 µM, an IC50 (DNMT3a; IC50, DNMT3a, RK-701 in duplicate) of 0.3 µM and an IC50 (MLL3; MLL3, 1 μM SAM) of 49.7 µM. For the same molecule, the IC50 (MLL3; MLL3, RK-701 in duplicate) was 49.7 µM.
